Source: patent US20090142363A1, “CYTOTOXIC T-CELL EPITOPE PEPTIDE AND USE THEREOF” (priority 2005, published 2009)
No end group written: not given here.

What was measured:
[1] = test system: CTLs with target cells expressing HLA-A*24 molecules; assay: Confirmation of CTLs by ELISPOT assay (IFNγ spots); format: cell-based, human; settings: FIG. 4
Description: A commercially available ELISPOT assay kit (for example, MABTECH Co.) may be purchased, and the assay can be performed according to the manufacturer's protocol. Alternatively, the assay may also be carried out by the following procedure. 96-well MultiScreen-HA plates (Millipore Co.) were coated with an anti-IFNγ monoclonal antibody (R&D Systems Co.) at 4° C. for overnight. Each well was washed with PBS. Target cells were plated into each well. Any cells expressing HLA-A*24 molecules on their surface can be used as the target cells. For example, T2-A24, a cultured cell which a gene of HLA-A*24 molecule is introduced into a 174CEM.T2 cell, can be used. Alternatively, EBV-infected LCLs expressing HLA-A*24 molecules on their surface can be used as the target cells. These target cells were added into each well with a candidate peptide for adenovirus-specific CTL epitopes or a negative control (HIV) peptide. The mixtures were allowed to stand at room temperature for 30 minutes. Then, an adequate number of CTLs were added, and the mixtures were cultured in a 5% CO2 incubator at 37° C. for 20 hours. CTLs that responded to the candidate epitope peptide secreted IFNγ during this culture period, and the IFNγ bound to the anti-IFNγ monoclonal antibody that was coated on the plates. After culturing was completed, the plates were washed with PBS containing 0.05% Tween-20. Then, an anti-IFNγ polyclonal antibody (Genzyme Co.) and peroxidase-labeled goat anti-rabbit IgG serum were allowed to react in this order at room temperature for 90 minutes each. Furthermore, 3-amino-9-ethylcarbasole (Sigma), a peroxidase substrate, and 0.1M sodium acetate buffer (pH 5.0) containing 0.015% H2O2 was added to each well, and the plates were incubated at room temperature for 40 minutes to visualize the IFNγ spots. The spots were counted under a stereomicroscope.
The spots were counted under a stereomicroscope, and were plotted on a graph.

[2] = test system: PBMCs of healthy adults reactive to the anti-HLA-A*24 antibody; assay: Induction of specific CTLs from PBMCs, method for quantifying cells producing intracellular IFNγ; format: cell-based, human; parameters: key to specific CTL induction, cytokine quantification method: ∘: “open circle” indicates that the use of a candidate peptide enabled specific CTLs to be induced; x: “cross” indicates that specific CTLs was unable to be induced; settings: for specific CTL induction confirmed by CD8-positive, IFNγ-positive cells versus HIV peptide: donor ID*24-8, FIG. 3a-d; for peptide-specific cytokine production in PBMCs derived from ten people with HLA-A*24 molecule: summary of Table 2
Description: This induction method induces CTLs by adding peptides to culture media of PBMCs. Peptides are presented on antigen-presenting cells present among PBMCs, such as dendritic cells, B cells, macrophages, and certain types of T cells, whereby CTL precursor cells in PBMCs are stimulated to proliferate.
Peripheral blood collected from healthy adults that were reactive to the anti-HLA-A*24 antibody was centrifuged at 3,000 rpm for 5 to 10 minutes. The resulting supernatant plasma was collected. The non-plasma portion was processed according to a conventional method to isolate PBMCs. The characteristic of the present method is the addition of several % of plasma to an induction medium. In the present invention, a favorable result was obtained by adding 5% plasma. The medium is prepared by adding appropriate additives and antibiotics to a medium commonly used for cell culture. The CTL induction medium used in the present invention was RPMI1640 Hepes modify (Sigam) supplemented with 2-mercapotethanol, L-glutamine, and the antibiotics streptomycin and penicillin. In addition to these, insulin, transferrin, selenious acid, pyruvic acid, human serum albumin, solution of non-essential amino acids, and the like may be added. 1 to 3×10^6 PBMCs were suspended in 1 to 2.5 ml of the culture medium. A candidate peptide was added to the cells at a concentration of 1 to 20 μg/ml. The concentration of peptide can be altered depending on the solubility of the peptide. The peptide was added at 10 μg/ml. After two days, IL-2 was added at a final concentration of 20 to 100 U/ml. Round-bottomed culture dishes that allow the exchange of carbon dioxide gas are preferably used to co-culture PBMCs with peptides. In the context of the present invention, 14-ml round-bottomed polypropylene tubes (Becton Dikinson) or 96-well U-bottomed cell culture microtest plates (Becton Dikinson) were used. The adenovirus-specific CTLs were confirmed after about two and four weeks of culture. The cells were stimulated again with the peptide at 10 μg/ml after about two weeks of culture. When the induction of adenovirus-specific CTLs was confirmed, the cells were further stimulated with peptide-pulsed antigen-presenting cells to establish CTL lines.
Approximately 1/10 to all of the cells induced by the above-described method were transferred into 96-well U-bottomed cell culture microtest plates, and the peptide used for the induction was added thereto at a final concentration of 0.01 to 0.05 μg/ml. Then, an intracellular protein transport inhibitor (for example, brefeldin A, monensin, or such) was added, and the cells were cultured in a 5% CO2 incubator at 37° C. for 5 to 16 hours. After culture, the cells were washed, and phycoerythrin (PE)-labeled MHC-tetramer reagent and phycoerythrin-Cy5(PC5)-labeled CD8 antibody (Beckman Coulter) were added thereto. The resulting mixture was allowed to stand at room temperature for 15 to 30 minutes. After washing, the cells were fixed with 4% formaldehyde at 4° C. for 15 minutes and washed with an excess amount of washing solution. After membrane permeabilization treatment with 0.1% saponin, an FITC-labeled anti-IFNγ antibody (Beckman Coulter) was added, and reacted at room temperature for 15 to 30 minutes. After washing, the proportion of IFNγ-positive cells in T cells or MHC-tetramer reagent-positive cells was determined using a flow cytometer.
PBMCs derived from ten people with HLA-A*24 molecule were tested using 10 types of peptides. […] Thus, these six types of candidate epitope peptides serve as adenovirus-specific CTL epitope peptides. Since the adenovirus-specific CTL epitope peptides have the HLA-A*24-binding motif, they are likely to be HLA-A*2402-restricted epitope peptides, which are carried by 60% or more of the Japanese people. In the context of the results described above, MHC-tetramer reagents were synthesized using five types of epitope peptides, and their utility was tested.

| Sequence | IFNγ spots in ELISPOT assay compared with the negative control (HIV) peptide [1] | specific CTL induction, cytokine quantification method ([2]; donor ID *24-1) | specific CTL induction, cytokine quantification method ([2]; donor ID *24-2) | specific CTL induction, cytokine quantification method ([2]; donor ID *24-3) | specific CTL induction, cytokine quantification method ([2]; donor ID *24-5) | specific CTL induction, cytokine quantification method ([2]; donor ID *24-8) | specific CTL induction, cytokine quantification method ([2]; donor ID *24-10) | specific CTL induction, cytokine quantification method ([2]; donor ID *24-11) | specific CTL induction, cytokine quantification method ([2]; donor ID *24-12) | specific CTL induction, cytokine quantification method ([2]; donor ID *24-13) | specific CTL induction, cytokine quantification method ([2]; donor ID *24-14) | specific CTL induction confirmed by CD8-positive, IFNγ-positive cells versus HIV peptide [2] | peptide-specific cytokine production in PBMCs derived from ten people with HLA-A*24 molecule [2] |
| --- | --- | --- | --- | --- | --- | --- | --- | --- | --- | --- | --- | --- | --- |
| TYFNLGNKF [TYF] | IFNγ spots were observed | x | ∘ | x | x | ∘ | x | x | x | x | x | induced specific CTLs | induce cytokine production in a peptide-specific manner |
| VYSGSIPYL | IFNγ spots were observed | x | ∘ | x | x | ∘ | x | x | x | x | x | induced specific CTLs | induce cytokine production in a peptide-specific manner |
